Patent US10253002B2, “Compounds and methods of treating infections” (Neoculi Pty Ltd., priority 2013, dated 2019)
“And” between values parts separate entries of the source, which are not always exact repeats. Equal entries are not always repeated. One block for each molecule: values may come before it.

What was measured:
S. pneumoniae isolates = assay: Disk diffusion susceptibility (CLSI/EUCAST), Example 5; assay type: cell-based, Streptococcus pneumoniae
Procedure: Isolate susceptibility to 12 different antimicrobials (Table 16) was determined by CLSI and European Committee on Antimicrobial Susceptibility Testing (EUCAST) methods. Antimicrobials were selected based upon the CLSI and EUCAST guidelines. Standardised bacterial suspensions were spread onto MHSBA using a sterile cotton swab. Bacterial suspensions from of Streptococcus pneumoniae were standardised to an OD6O0 between 0.08 and 0.1 using a spectrophotometer and then diluted 1:20. Bacterial colonies were taken from an O/N horse blood agar plate. To ensure the purity of the 1:20 bacterial suspension, 50 μL was spread plated onto horse blood agar and incubated O/N at 37° C. with 5% CO2. The CFU was calculated and compared to the initial plate counts. Antibiotic disks (Purchased from Sigma Aldrich) were placed using a disk dispenser (Purchased from Oxoid) according to CLSI standards. MHSBA plates were incubated for 16 h-24 h at 37° C. in 5% CO2. Zones of complete inhibition were measured in triplicate to the nearest millimeter using a ruler on natural light-reflected growth, and the mode was represented as the diameter for each isolate. Pneumococcal isolates were categorised as sensitive, intermediate (I) or resistant (R) by CLSI standards and quality control (QC) ranges (Table 16).

[1] = tested on: Staphylococcus pseudintermedius isolates (MSSP and MRSP); assay: Disk diffusion and Epsilometer susceptibility testing, Example 6; assay type: cell-based; conditions: 13 MRSP isolates
MRSA = assay: Broth microdilution MIC, Example 7 (NCL812 and analogues); assay type: cell-based, Staphylococcus aureus
Summary of the method: (§1)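 Turbidity read visually and then at 600 nm defined the MIC (μg/ml), comparing drug-containing wells with a growth-control well lacking antimicrobial. Testing followed the CLSI broth microdilution method, in duplicate, using two strains per organism group.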

VRE = assay: as above; assay type: cell-based, Enterococcus spp.
Summary of the method: as §1

Escherichia coli = assay: as above; assay type: cell-based; conditions: 24 hours
Pseudomonas aeruginosa = assay: as above; assay type: cell-based; conditions: 24 hours
[2] = MRSA 1, 24 hours, duplicate lines per compound
[3] = MRSA 2, 24 hours, duplicate lines per compound
[4] = VRE 1, 24 hours, duplicate lines per compound
[5] = VRE 2, 24 hours, duplicate lines per compound
[6] = E. coli, duplicate lines per compound
[7] = P. aeruginosa, duplicate lines per compound

Structure (SMILES): CC[C@H]1OC(=O)[C@H](C)[C@@H](O[C@H]2C[C@@](C)(OC)[C@@H](O)[C@H](C)O2)[C@H](C)[C@@H](O[C@@H]2O[C@H](C)C[C@H](N(C)C)[C@H]2O)[C@](C)(OC)C[C@@H](C)C(=O)[C@H](C)[C@@H](O)[C@]1(C)O [Clarithromycin]
- disk diffusion zone diameter (S. pneumoniae isolates; A66.1): 30 mm
- disk diffusion zone diameter (S. pneumoniae isolates; D39): 32 mm
- disk diffusion zone diameter (S. pneumoniae isolates; EF3030): 32 mm
- disk diffusion zone diameter (S. pneumoniae isolates; L82016): 34 mm
- disk diffusion zone diameter (S. pneumoniae isolates; P9): 40 mm
- disk diffusion zone diameter (S. pneumoniae isolates; P21): 38 mm
- disk diffusion zone diameter (S. pneumoniae isolates; TIGR4): 35 mm
- disk diffusion zone diameter (S. pneumoniae isolates; WCH16): 33 mm
- disk diffusion zone diameter (S. pneumoniae isolates; WCH43): 28 mm
- disk diffusion zone diameter (S. pneumoniae isolates; WCH46): 39 mm
- disk diffusion zone diameter (S. pneumoniae isolates; WCH57): 39 mm
- disk diffusion zone diameter (S. pneumoniae isolates; WCH77): 37 mm
- disk diffusion zone diameter (S. pneumoniae isolates; WCH86): 36 mm
- disk diffusion zone diameter (S. pneumoniae isolates; WCH89): 31 mm
- disk diffusion zone diameter (S. pneumoniae isolates; WCH92): 27 mm
- disk diffusion zone diameter (S. pneumoniae isolates; WCH137): 33 mm
- disk diffusion zone diameter (S. pneumoniae isolates; WCH158): 38 mm
- disk diffusion zone diameter (S. pneumoniae isolates; WCH184): 10 mm
- disk diffusion susceptibility category (S. pneumoniae isolates; WCH184 (Table 18)): R
- disk diffusion zone diameter (S. pneumoniae isolates; WCH211): 33 mm
- disk diffusion zone diameter (S. pneumoniae isolates; WU2): 31 mm

Structure (SMILES): CC(=O)OCC1=C(C(=O)O)N2C(=O)[C@@H](NC(=O)Cc3cccs3)[C@H]2SC1 [cephalothin]
- MRSP isolates susceptible [1]: 62%

Structure (SMILES): Cl.N=C(NN=C1C(=O)Nc2ccccc21)NN=C1C(=O)Nc2ccccc21 [NCL 163]
- MIC (μg/ml) at 24 hours, MRSA 1 (MRSA; [2]): >128 µg/mL
- MIC (μg/ml) at 24 hours, MRSA 2 (MRSA; [3]): >128 µg/mL
- MIC (μg/ml) at 24 hours, VRE 1 (VRE; [4]): >128 µg/mL
- MIC (μg/ml) at 24 hours, VRE 2 (VRE; [5]): >128 µg/mL
- MIC (μg/ml) at 24 hours, E. coli (Escherichia coli; [6]): >128 µg/mL
- MIC (μg/ml) at 24 hours, P. aeruginosa (Pseudomonas aeruginosa; [7]): >128 µg/mL

Structure (SMILES): Cl.N=C(N/N=C/c1ccc(Br)cc1)N/N=C/c1ccc(Br)cc1 [NCL 134]
- MIC (μg/ml) at 24 hours, MRSA 1 (MRSA; [2]): >128 µg/mL
- MIC (μg/ml) at 24 hours, MRSA 2 (MRSA; [3]): >128 µg/mL
- MIC (μg/ml) at 24 hours, VRE 1 (VRE; [4]): >128 µg/mL
- MIC (μg/ml) at 24 hours, VRE 2 (VRE; [5]): >128 µg/mL
- MIC (μg/ml) at 24 hours, E. coli (Escherichia coli; [6]): >128 µg/mL
- MIC (μg/ml) at 24 hours, P. aeruginosa (Pseudomonas aeruginosa; [7]): >128 µg/mL

Structure (SMILES): Cl.N=C(NN=Cc1ccc(Cl)cc1N)NN=Cc1ccc(Cl)cc1N [NCL 157]
- MIC (μg/ml) at 24 hours, MRSA 1 (MRSA; [2]): 2 µg/mL
- MIC (μg/ml) at 24 hours, MRSA 2 (MRSA; [3]): 2 µg/mL
- MIC (μg/ml) at 24 hours, VRE 1 (VRE; [4]): 2 µg/mL
- MIC (μg/ml) at 24 hours, VRE 2 (VRE; [5]): 2 µg/mL and 4 µg/mL
- MIC (μg/ml) at 24 hours, E. coli (Escherichia coli; [6]): >128 µg/mL
- MIC (μg/ml) at 24 hours, P. aeruginosa (Pseudomonas aeruginosa; [7]): >128 µg/mL

Structure (SMILES): CCCCc1ccc(C=NNC(=N)NN=Cc2ccc(CCCC)cc2)cc1.Cl [NCL 136]
- MIC (μg/ml) at 24 hours, MRSA 1 (MRSA; [2]): 64 µg/mL
- MIC (μg/ml) at 24 hours, MRSA 2 (MRSA; [3]): 128 µg/mL
- MIC (μg/ml) at 24 hours, VRE 1 (VRE; [4]): 32 µg/mL
- MIC (μg/ml) at 24 hours, VRE 2 (VRE; [5]): 128 µg/mL
- MIC (μg/ml) at 24 hours, E. coli (Escherichia coli; [6]): >128 µg/mL
- MIC (μg/ml) at 24 hours, P. aeruginosa (Pseudomonas aeruginosa; [7]): >128 µg/mL

Structure (SMILES): Cl.N=C(NN=Cc1cnc2ccccc2c1)NN=Cc1cnc2ccccc2c1 [NCL 139]
- MIC (μg/ml) at 24 hours, MRSA 1 (MRSA; [2]): >128 µg/mL
- MIC (μg/ml) at 24 hours, MRSA 2 (MRSA; [3]): >128 µg/mL
- MIC (μg/ml) at 24 hours, VRE 1 (VRE; [4]): >128 µg/mL
- MIC (μg/ml) at 24 hours, VRE 2 (VRE; [5]): >128 µg/mL
- MIC (μg/ml) at 24 hours, E. coli (Escherichia coli; [6]): >128 µg/mL
- MIC (μg/ml) at 24 hours, P. aeruginosa (Pseudomonas aeruginosa; [7]): >128 µg/mL

More lines, main results first:

- MIC (μg/ml) at 24 hours, MRSA 1 (MRSA; isolate MRSA 1, 24 hours, 1st and 2nd replicate rows): >128 µg/mL
- MIC (μg/ml) at 24 hours, MRSA 2 (MRSA; isolate MRSA 2, 24 hours, 1st and 2nd replicate rows): >128 µg/mL
- MIC (μg/ml) at 24 hours, VRE 1 (VRE; isolate VRE 1, 24 hours, 1st and 2nd replicate rows): >128 µg/mL
- MIC (μg/ml) at 24 hours, VRE 2 (VRE; isolate VRE 2, 24 hours, 1st and 2nd replicate rows): >128 µg/mL
- MIC (μg/ml) at 24 hours, E. coli (Escherichia coli; 1st and 2nd replicate rows): >128 µg/mL
- MIC (μg/ml) at 24 hours, P. aeruginosa (Pseudomonas aeruginosa; 1st and 2nd replicate rows): >128 µg/mL
Structure (SMILES): Cl.N=C(N/N=C/c1ccccc1C(F)(F)F)N/N=C/c1ccccc1C(F)(F)F [NCL036]

- MIC (μg/ml) at 24 hours, MRSA 1 (MRSA; MRSA 1, 24 hours): >128 µg/mL
- MIC (μg/ml) at 24 hours, MRSA 2 (MRSA; MRSA 2, 24 hours): >128 µg/mL
- MIC (μg/ml) at 24 hours, VRE 1 (VRE; VRE 1, 24 hours): >128 µg/mL
- MIC (μg/ml) at 24 hours, VRE 2 (VRE; VRE 2, 24 hours): >128 µg/mL
- MIC (μg/ml) at 24 hours, E. coli (Escherichia coli; E. coli): >128 µg/mL
- MIC (μg/ml) at 24 hours, P. aeruginosa (Pseudomonas aeruginosa; P. aeruginosa): >128 µg/mL
Structure (SMILES): CC(C)COC(=O)N(N=Cc1ccc(Cl)cc1)C(N)=NN=Cc1ccc(Cl)cc1 [NCL225]

- MIC (μg/ml) at 24 hours, MRSA 1 (MRSA; [2]): 32 µg/mL
- MIC (μg/ml) at 24 hours, MRSA 2 (MRSA; [3]): 64 µg/mL
- MIC (μg/ml) at 24 hours, VRE 1 (VRE; [4]): 64 µg/mL
- MIC (μg/ml) at 24 hours, VRE 2 (VRE; [5]): 64 µg/mL
- MIC (μg/ml) at 24 hours, E. coli (Escherichia coli; [6]): >128 µg/mL
- MIC (μg/ml) at 24 hours, P. aeruginosa (Pseudomonas aeruginosa; [7]): >128 µg/mL
Structure (SMILES): Cl.N=C(NN)NN=Cc1ccc(Cl)cc1 [NCL072]
- activity against MRSA among analogues (MRSA; MIC testing, two MRSA strains): greatest activity
- activity against VRE among analogues (VRE; MIC testing, two VRE strains): greatest activity
